# Laboratory results published in ChEMBL document CHEMBL1275456, “Metallo-beta-lactamase gene bla(IMP-15) in a class 1 integron, In95, from Pseudomonas aeruginosa clinical isolates from a hospital in Mexico” (2008).
# Tests used:
# Format in all cases: functional
# Pseudomonas aeruginosa [1] = assay: Antimicrobial activity against Pseudomonas aeruginosa clinical isolates assessed as resistant isolates by agar dilution method
# Pseudomonas aeruginosa [2] = assay: Antimicrobial activity against Pseudomonas aeruginosa blood isolate 4667 containing PFGE clone A expressing beta-lactamase IMP-15 by broth microdilution method
# Pseudomonas aeruginosa [3] = assay: Antimicrobial activity against Pseudomonas aeruginosa blood isolate 4677 containing PFGE clone A expressing beta-lactamase IMP-15 by broth microdilution method
# Pseudomonas aeruginosa [4] = assay: Antimicrobial activity against Pseudomonas aeruginosa secretion isolate 4682-1 containing PFGE clone A expressing beta-lactamase IMP-15 by broth microdilution method
# Pseudomonas aeruginosa [5] = assay: Antimicrobial activity against Pseudomonas aeruginosa catheter isolate 4696 containing PFGE clone A expressing beta-lactamase IMP-15 by broth microdilution method
# Pseudomonas aeruginosa [6] = assay: Antimicrobial activity against Pseudomonas aeruginosa urine isolate 4698 containing PFGE clone A expressing beta-lactamase IMP-15 by broth microdilution method
# Pseudomonas aeruginosa [7] = assay: Antimicrobial activity against Pseudomonas aeruginosa urine isolate 4706 containing PFGE clone A expressing beta-lactamase IMP-15 by broth microdilution method
# Pseudomonas aeruginosa [8] = assay: Antimicrobial activity against Pseudomonas aeruginosa secretion isolate 4658 containing PFGE clone A1 expressing beta-lactamase IMP-15 by broth microdilution method
# Pseudomonas aeruginosa [9] = assay: Antimicrobial activity against Pseudomonas aeruginosa pleural fluid isolate 4679 containing PFGE clone A1 expressing beta-lactamase IMP-15 by broth microdilution method
# Pseudomonas aeruginosa [10] = assay: Antimicrobial activity against Pseudomonas aeruginosa secretion isolate 4688 containing PFGE clone A1 expressing beta-lactamase IMP-15 by broth microdilution method
# Pseudomonas aeruginosa [11] = assay: Antimicrobial activity against Pseudomonas aeruginosa secretion isolate 4703 containing PFGE clone A1 expressing beta-lactamase IMP-15 by broth microdilution method
# Pseudomonas aeruginosa [12] = assay: Antimicrobial activity against Pseudomonas aeruginosa blood isolate 4659 containing PFGE clone A2 expressing beta-lactamase IMP-15 by broth microdilution method
# Pseudomonas aeruginosa [13] = assay: Antimicrobial activity against Pseudomonas aeruginosa catheter isolate 4680 containing PFGE clone A2 expressing beta-lactamase IMP-15 by broth microdilution method
# Pseudomonas aeruginosa [14] = assay: Antimicrobial activity against Pseudomonas aeruginosa urine isolate 4663 expressing beta-lactamase IMP-15 by broth microdilution method
# Pseudomonas aeruginosa [15] = assay: Antimicrobial activity against Pseudomonas aeruginosa secretion isolate 4682-1 containing PFGE clone A expressing beta-lactamase IMP-15 by broth microdilution method in presence of beta-lactamase inhibitor Tazobactam
# Pseudomonas aeruginosa [16] = assay: Antimicrobial activity against Pseudomonas aeruginosa catheter isolate 4696 containing PFGE clone A expressing beta-lactamase IMP-15 by broth microdilution method in presence of beta-lactamase inhibitor Tazobactam
# Pseudomonas aeruginosa [17] = assay: Antimicrobial activity against Pseudomonas aeruginosa urine isolate 4698 containing PFGE clone A expressing beta-lactamase IMP-15 by broth microdilution method in presence of beta-lactamase inhibitor Tazobactam; conditions: isolate 4698, Urine
# Pseudomonas aeruginosa [18] = assay: Antimicrobial activity against Pseudomonas aeruginosa urine isolate 4706 containing PFGE clone A expressing beta-lactamase IMP-15 by broth microdilution method in presence of beta-lactamase inhibitor Tazobactam; conditions: isolate 4706, Urine
# Pseudomonas aeruginosa [19] = assay: Antimicrobial activity against Pseudomonas aeruginosa secretion isolate 4658 containing PFGE clone A1 expressing beta-lactamase IMP-15 by broth microdilution method in presence of beta-lactamase inhibitor Tazobactam
# Pseudomonas aeruginosa [20] = assay: Antimicrobial activity against Pseudomonas aeruginosa pleural fluid isolate 4679 containing PFGE clone A1 expressing beta-lactamase IMP-15 by broth microdilution method in presence of beta-lactamase inhibitor Tazobactam; conditions: isolate 4679, Pleural fluid
# Pseudomonas aeruginosa [21] = assay: Antimicrobial activity against Pseudomonas aeruginosa secretion isolate 4688 containing PFGE clone A1 expressing beta-lactamase IMP-15 by broth microdilution method in presence of beta-lactamase inhibitor Tazobactam
# Pseudomonas aeruginosa [22] = assay: Antimicrobial activity against Pseudomonas aeruginosa secretion isolate 4703 containing PFGE clone A1 expressing beta-lactamase IMP-15 by broth microdilution method in presence of beta-lactamase inhibitor Tazobactam
# Pseudomonas aeruginosa [23] = assay: Antimicrobial activity against Pseudomonas aeruginosa blood isolate 4659 containing PFGE clone A2 expressing beta-lactamase IMP-15 by broth microdilution method in presence of beta-lactamase inhibitor Tazobactam
# Pseudomonas aeruginosa [24] = assay: Antimicrobial activity against Pseudomonas aeruginosa catheter isolate 4680 containing PFGE clone A2 expressing beta-lactamase IMP-15 by broth microdilution method in presence of beta-lactamase inhibitor Tazobactam
# Pseudomonas aeruginosa [25] = assay: Antimicrobial activity against Pseudomonas aeruginosa urine isolate 4663 expressing beta-lactamase IMP-15 by broth microdilution method in presence of beta-lactamase inhibitor Tazobactam; conditions: isolate 4663, Urine
# Pseudomonas aeruginosa [26] = assay: Antimicrobial activity against Pseudomonas aeruginosa clinical isolates assessed as resistant isolates by agar dilution method in presence of beta-lactamase inhibitor Tazobactam
# Pseudomonas aeruginosa [27] = assay: Antimicrobial activity against Pseudomonas aeruginosa blood isolate 4667 containing PFGE clone A expressing beta-lactamase IMP-15 by broth microdilution method in presence of beta-lactamase inhibitor Tazobactam
# Pseudomonas aeruginosa [28] = assay: Antimicrobial activity against Pseudomonas aeruginosa blood isolate 4677 containing PFGE clone A expressing beta-lactamase IMP-15 by broth microdilution method in presence of beta-lactamase inhibitor Tazobactam
Compound,Activity (Pseudomonas aeruginosa [1]) [%],MIC (Pseudomonas aeruginosa [2]) [µg/mL],MIC (Pseudomonas aeruginosa [3]) [µg/mL],MIC (Pseudomonas aeruginosa [4]) [µg/mL],MIC (Pseudomonas aeruginosa [5]) [µg/mL],"MIC (Pseudomonas aeruginosa [6]; isolate 4698, Urine) [µg/mL]","MIC (Pseudomonas aeruginosa [7]; isolate 4706, Urine) [µg/mL]",MIC (Pseudomonas aeruginosa [8]) [µg/mL],MIC (Pseudomonas aeruginosa [9]) [µg/mL],MIC (Pseudomonas aeruginosa [10]) [µg/mL],MIC (Pseudomonas aeruginosa [11]) [µg/mL],MIC (Pseudomonas aeruginosa [12]) [µg/mL],MIC (Pseudomonas aeruginosa [13]) [µg/mL],"MIC (Pseudomonas aeruginosa [14]; isolate 4663, Urine) [µg/mL]",other results
C[C@@H](O)[C@H]1C(=O)N2C(C(=O)O)=C(S[C@@H]3CN[C@H](C(=O)N(C)C)C3)[C@H](C)[C@H]12 [MEROPENEM],87,128,128,128,128,128,128,128,128,128,128,128,128,> 128,–
CC(C)(O/N=C(\C(=O)N[C@@H]1C(=O)N2C(C(=O)[O-])=C(C[n+]3ccccc3)CS[C@H]12)c1csc(N)n1)C(=O)O [CEFTAZIDIME],61,> 128,> 128,> 128,> 128,> 128,> 128,> 128,> 128,> 128,> 128,> 128,> 128,> 128,–
GENTAMICIN,54,128,> 128,> 128,> 128,–,–,128,128,> 128,> 128,> 128,128,–,MIC (Pseudomonas aeruginosa [6]): > 128 µg/mL; MIC (Pseudomonas aeruginosa [7]): > 128 µg/mL; MIC (Pseudomonas aeruginosa [14]): 128 µg/mL
CCN1CCN(C(=O)N[C@@H](C(=O)N[C@@H]2C(=O)N3[C@@H]2SC(C)(C)[C@@H]3C(=O)O)c2ccccc2)C(=O)C1=O [PIPERACILLIN],19,64,64,64,64,64,64,64,64,64,64,64,64,64,MIC (Pseudomonas aeruginosa [15]): 64 µg/mL; MIC (Pseudomonas aeruginosa [16]): 64 µg/mL; MIC (Pseudomonas aeruginosa [17]): 64 µg/mL; MIC (Pseudomonas aeruginosa [18]): 64 µg/mL; MIC (Pseudomonas aeruginosa [19]): 64 µg/mL; MIC (Pseudomonas aeruginosa [20]): 64 µg/mL; MIC (Pseudomonas aeruginosa [21]): 64 µg/mL; MIC (Pseudomonas aeruginosa [22]): 64 µg/mL; MIC (Pseudomonas aeruginosa [23]): 64 µg/mL; MIC (Pseudomonas aeruginosa [24]): 64 µg/mL; MIC (Pseudomonas aeruginosa [25]): 64 µg/mL; Activity (Pseudomonas aeruginosa [26]): 14%; MIC (Pseudomonas aeruginosa [27]): 64 µg/mL; MIC (Pseudomonas aeruginosa [28]): 64 µg/mL
C[C@@H](O)[C@H]1C(=O)N2C(C(=O)O)=C(SCCNC=N)C[C@H]12 [IMIPENEM ANHYDROUS],100,> 128,> 128,128,128,> 128,32,128,128,> 128,> 128,> 128,128,32,–
C[C@H]1[C@H](NC(=O)/C(=N\OC(C)(C)C(=O)O)c2csc(N)n2)C(=O)N1S(=O)(=O)O [AZTREONAM],–,–,–,–,–,–,–,–,–,–,–,–,–,8,–
NCC[C@H](O)C(=O)N[C@@H]1C[C@H](N)[C@@H](O[C@H]2O[C@H](CN)[C@@H](O)[C@H](O)[C@H]2O)[C@H](O)[C@H]1O[C@H]1O[C@H](CO)[C@@H](O)[C@H](N)[C@H]1O [AMIKACIN],51,> 128,> 128,> 128,> 128,> 128,64,> 128,> 128,> 128,128,> 128,> 128,4,–
